Assay results reported in patent US8247170B2, “Detection of penicillin tolerance in Group B Streptococcus: single nucleotide polymorphisms in penicillin binding protein 4” (priority 2008, dated 2012).

System: GBS laboratory strains
Assay: Penicillin induced lysis (OD600 change)
Type: cell-based, Group B Streptococcus
Details: 100×MIC90 Penicillin G 22 hours
Description: In this series of study, the three GBS laboratory strains (i.e., A909, NEM316, and O90R) were cultured for 18 hours at 37° C. in THB. Subcultures in THB were subsequently grown to exponential phase (OD600˜0.3) at 37° C. Cells were treated with 100×MIC90 Penicillin G for an additional 22 hours. OD600 of these cell cultures before (O.D. initial) and after penicillin treatment (O.D. experimental) was measured (N=3). The values of O.D. experimental were subtracted from O.D. initial. (See FIG. 2).
(I) Bacterial Strains and Culture Conditions. GBS strains A909 (serotype IA), 515 (serotype IA), NEM316 (serotype III), COHI (serotype III), 2603V/R (serotype V) and O90R (non-typable) were used in this study. E. coli Top10 cells were used for the recombination experiments. GBS was cultured in Todd Hewitt broth (THB) or Tryptic Soy 5% sheep blood (TS) media and E. coli in Luria-broth (LB) medium or agar. Antibiotics were used at the following concentrations: for GBS—penicillin G (MIC90 0.06 μg ml^−1), ampicillin (MIC90 0.12 μg ml^−1), vancomycin (MIC90 2 μg ml^−1), cefazolin (MIC90 1 μg ml^−1) and chloramphenicol (5 μg ml^−1); for E. coli—ampicillin (50 μg ml^−1) and chloramphenicol (5 μg ml^−1). Both GBS and E. coli cultures were grown at 37° C. (II) Tolerance Using the MBC:MIC Ratio Method. Three GBS laboratory strains (i.e., A909, NEM316, and O90R) were cultured overnight for 18 h at 37° C. in THB. Subcultures in THB were subsequently grown to exponential phase (OD600˜0.3; i.e. 5×10^5 cfu/ml) at 37° C. Cell cultures were then exposed to different concentrations of antibiotics (Penicillin G, Ampicillin, Cefozolin or Vancomycin). […] Cell cultures were allowed to re-grow for an additional 24 h at 37° C. before the OD600 was measured. […] The initial (in.) cellular ATP concentration ([ATP]) was measured using the ENLITEN (Promega) luciferase based reaction kit. […] The experimental (exp.) cellular ATP was extracted and the concentration was measured as stated above. […]

`CC1(C)S[C@@H]2[C@H](NC(=O)Cc3ccccc3)C(=O)N2[C@H]1C(=O)O` [Penicillin G] was tested, and the “change in OD600 (lysis, FIG. 2)” value (GBS strain A909) was “decrease in OD”, the “change in OD600 (lysis, FIG. 2)” value (GBS strain NEM316) was “did not” and the “change in OD600 (lysis, FIG. 2)” value (GBS strain O90R) was “did not”.
